Reference: patent US8334315B2, “Substituted aromatic carboxamide and urea derivatives as vanilloid receptor ligands” (Gruenenthal GmbH, priority 2009, dated 2012)

Tests used:
[1] = target: T1, rat-species vanilloid receptor 1 (VR1/TRPV1) (Rattus norvegicus, UniProt O35433); test: Functional testing on the vanilloid receptor 1, FLIPR Ca2+ influx in rat DRG cells, capsaicin; format: cell-based; parameters: key to Ki (rat) [nM] Cap: agonist / partial agonist / no effect: AG=agonist; pAG=partial agonist; NE=no effect; conditions: for Ki: capsaicin (Cap), includes values given in brackets after pAG
T1 construct: endogenous in cells; host or cells: primary cells dissociated from rat dorsal root ganglia (DRG), cultured 2-3 days with NGF

hVR1 = target: T2, hVR1 (Homo sapiens, UniProt Q8NER1); test: Functional test on VR1, FLIPR Ca2+ influx in transfected CHO K1 cells, capsaicin; format: cell-based, human being; parameters: key to Ki (human being) [nM] Cap: agonist / partial agonist / no effect: AG=agonist; pAG=partial agonist; NE=no effect; conditions: for Ki: capsaicin (Cap), includes values given in brackets after pAG, read-out: Ki (human being) [nM] Cap
T2 construct: expressed in transfected cells; host or cells: CHO K1 cells (ECACC), stably transfected
T2 sequence (Q8NER1 whole entry): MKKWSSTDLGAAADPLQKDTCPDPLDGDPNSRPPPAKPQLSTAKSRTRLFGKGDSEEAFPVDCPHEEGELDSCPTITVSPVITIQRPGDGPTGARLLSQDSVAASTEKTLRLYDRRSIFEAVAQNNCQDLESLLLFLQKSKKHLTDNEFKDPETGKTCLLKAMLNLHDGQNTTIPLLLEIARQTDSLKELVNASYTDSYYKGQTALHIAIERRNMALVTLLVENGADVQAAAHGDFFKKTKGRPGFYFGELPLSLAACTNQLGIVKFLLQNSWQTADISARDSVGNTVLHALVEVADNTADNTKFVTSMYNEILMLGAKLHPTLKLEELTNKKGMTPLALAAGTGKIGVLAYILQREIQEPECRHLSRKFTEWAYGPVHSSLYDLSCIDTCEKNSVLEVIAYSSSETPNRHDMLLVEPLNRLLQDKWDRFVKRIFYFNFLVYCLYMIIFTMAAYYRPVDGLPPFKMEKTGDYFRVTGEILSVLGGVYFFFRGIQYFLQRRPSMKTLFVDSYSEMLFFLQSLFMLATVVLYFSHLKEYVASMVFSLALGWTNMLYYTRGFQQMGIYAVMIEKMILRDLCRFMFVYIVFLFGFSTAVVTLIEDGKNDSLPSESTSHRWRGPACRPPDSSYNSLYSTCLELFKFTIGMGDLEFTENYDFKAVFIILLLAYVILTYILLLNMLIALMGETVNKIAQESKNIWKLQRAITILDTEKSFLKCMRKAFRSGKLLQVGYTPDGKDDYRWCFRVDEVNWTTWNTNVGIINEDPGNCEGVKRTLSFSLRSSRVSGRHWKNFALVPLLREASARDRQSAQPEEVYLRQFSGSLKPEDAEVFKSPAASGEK

T1 sequence (O35433 whole entry): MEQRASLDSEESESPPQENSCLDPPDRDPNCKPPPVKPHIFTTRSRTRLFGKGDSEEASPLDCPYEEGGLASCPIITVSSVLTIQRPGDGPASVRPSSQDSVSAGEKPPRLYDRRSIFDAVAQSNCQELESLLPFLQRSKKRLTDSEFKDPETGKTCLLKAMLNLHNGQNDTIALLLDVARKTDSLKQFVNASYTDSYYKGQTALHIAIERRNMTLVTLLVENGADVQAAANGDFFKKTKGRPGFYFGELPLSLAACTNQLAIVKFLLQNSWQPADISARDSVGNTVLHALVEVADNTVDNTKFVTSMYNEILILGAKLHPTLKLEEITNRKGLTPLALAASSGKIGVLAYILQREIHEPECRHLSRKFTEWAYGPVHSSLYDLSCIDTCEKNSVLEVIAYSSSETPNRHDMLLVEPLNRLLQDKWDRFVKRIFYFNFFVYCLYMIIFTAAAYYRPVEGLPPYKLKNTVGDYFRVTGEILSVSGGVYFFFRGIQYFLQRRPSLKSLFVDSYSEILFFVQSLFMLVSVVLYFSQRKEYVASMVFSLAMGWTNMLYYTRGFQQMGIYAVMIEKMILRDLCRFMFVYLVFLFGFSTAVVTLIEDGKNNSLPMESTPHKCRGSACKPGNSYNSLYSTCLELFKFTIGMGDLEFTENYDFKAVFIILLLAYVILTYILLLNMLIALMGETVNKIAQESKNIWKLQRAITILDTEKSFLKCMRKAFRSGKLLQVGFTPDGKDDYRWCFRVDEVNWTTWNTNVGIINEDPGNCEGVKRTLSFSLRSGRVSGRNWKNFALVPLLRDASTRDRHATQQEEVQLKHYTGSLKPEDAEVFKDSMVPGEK

SMILES | Ki [1] | Ki (hVR1) | Ki (rat) [nM] Cap: agonist / partial agonist / no effect [1] | Ki (human being) [nM] Cap: agonist / partial agonist / no effect (hVR1)
CC(C)(C)c1cc(CNC(=O)Nc2ccc3c(c2)CCC3)n(-c2cccc(Cl)c2)n1 [Example 79, 1-((3-tert-butyl-1-(3-chlorophenyl)-1H-pyrazol-5-yl)methyl)-3-(2,3-dihydro-1H-inden-5-yl)urea] | 15.8 nM | 10.8 nM |  | 
Cc1nc2ccc(C(C)C(=O)NCc3cc(C(F)(F)F)nn3-c3cccc(Cl)c3)cc2s1 (stereo not drawn) [Example 45, N-((1-(3-chlorophenyl)-3-(trifluoromethyl)-1H-pyrazol-5-yl)methyl)-2-(2-methylbenzo[d]thiazol-6-yl)propanamide] | 14.7 nM | 15 nM | pAG | 
CC(C(=O)NCc1cc(C(C)(C)C)nn1-c1cccc(Cl)c1)c1ccc2c(c1)OCCO2 (stereo not drawn) [Example 13, N-((3-tert-butyl-1-(3-chlorophenyl)-1H-pyrazol-5-yl)methyl)-2-(2,3-dihydrobenzo[b][1,4]dioxin-6-yl)propanamide] | 5.5 nM | 6.4 nM | pAG | pAG
CC(C(=O)NCc1cc(C(C)(C)C)nn1-c1cccc(Cl)c1)c1ccc2c(c1)OCO2 (stereo not drawn) [Example 11, 2-(benzo[d][1,3]dioxol-5-yl)-N-((3-tert-butyl-1-(3-chlorophenyl)-1H-pyrazol-5-yl)methyl)propanamide] |  | 3.5 nM | AG | pAG

Stronger by Ki (hVR1), values ahead:

Ki [1] | Ki (hVR1) | Ki (rat) [nM] Cap: agonist / partial agonist / no effect [1] | Ki (human being) [nM] Cap: agonist / partial agonist / no effect (hVR1) | SMILES
2.5 nM | 1.3 nM | pAG | pAG | CC(C(=O)NCc1cc(C(F)(F)F)nn1-c1cccc(Cl)c1)c1ccc2cc(O)ccc2c1 (stereo not drawn) [Example 50, N-((1-(3-chlorophenyl)-3-(trifluoromethyl)-1H-pyrazol-5-yl)methyl)-2-(6-hydroxynaphthalen-2-yl)propanamide]
1 nM | 0.2 nM |  |  | CC(C(=O)NCc1cc(C(F)(F)F)nn1-c1cccc(Cl)c1)c1cccc2cnccc12 (stereo not drawn) [Example 64, N-((1-(3-chlorophenyl)-3-(trifluoromethyl)-1H-pyrazol-5-yl)methyl)-2-(isoquinolin-5-yl)propanamide]
